US9833497B2, “Human originated EGF domain proteins and use of the same” (CHENGDU SOURCEBIO LIMITED-LIABILITY COMPANY, priority 2013, dated 2017)

How the values were obtained:
Assay type in all cases: cell-based
Proteus mirabilis = experiment: MIC against Gram-negative bacteria: Proteus mirabilis
How it was run: (§1)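 Antibacterial activity of purified human EGF domain proteins: two-fold concentration series, triplicate wells, LB broth, 5×10^5 CFU/mL bacteria, 37° C shaking incubation. The lowest concentration without growth defines the MIC.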

Enterobacter cloacae = experiment: MIC against Gram-negative bacteria: Enterobacter cloacae
How it was run: as §1

E. coli DH5α = experiment: Antibacterial activity: MIC and growth curve against E. coli DH5α in 96-well plate; details: minimal inhibitory concentration against E. coli DH5α; 96-well plate, 5×10^5 CFU/mL, 37° C., judged after 8 h
How it was run: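 MIC taken as lowest protein level with no bacterial growth, tracked by A600 every 30 min during 37 °C, 175 rpm culture. Two-fold protein series 50-12.5 μg/mL final, triplicate wells, against 5×10^5 CFU/mL of LB-washed mid-log cells.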

Serratia marcescens = experiment: MIC against Gram-negative bacteria: Serratia marcescens
How it was run: as §1

E. coli BL21 = experiment: MIC against Gram-negative bacteria: E. coli BL21
How it was run: as §1

Pseudomonas aeruginosa = experiment: MIC against Gram-negative bacteria: Pseudomonas aeruginosa
How it was run: as §1

Citrobacter diversus = experiment: MIC against Gram-negative bacteria: Citrobacter diversus
How it was run: as §1

Proteus vulgaris = experiment: MIC against Gram-negative bacteria: Proteus vulgaris
How it was run: as §1

Aeromonas hydrophila = experiment: MIC against Gram-negative bacteria: Aeromonas hydrophila
How it was run: as §1

Moraxella catarrhalis = experiment: MIC against Gram-negative bacteria: Moraxella catarrhalis
How it was run: as §1

Klebsiella pneumonia = experiment: MIC against Gram-negative bacteria: Klebsiella pneumonia
How it was run: as §1

[1] = Proteus mirabilis, 96-well plate, 5×10^5 CFU/mL, 37° C., 10 h
[2] = Enterobacter cloacae, 96-well plate, 5×10^5 CFU/mL, 37° C., 10 h
[3] = Serratia marcescens, 96-well plate, 5×10^5 CFU/mL, 37° C., 10 h
[4] = E. coli BL21, 96-well plate, 5×10^5 CFU/mL, 37° C., 10 h
[5] = Pseudomonas aeruginosa, 96-well plate, 5×10^5 CFU/mL, 37° C., 10 h
[6] = Citrobacter diversus, 96-well plate, 5×10^5 CFU/mL, 37° C., 10 h
[7] = Proteus vulgaris, 96-well plate, 5×10^5 CFU/mL, 37° C., 10 h
[8] = Aeromonas hydrophila, 96-well plate, 5×10^5 CFU/mL, 37° C., 10 h
[9] = Moraxella catarrhalis, 96-well plate, 5×10^5 CFU/mL, 37° C., 10 h
[10] = Klebsiella pneumonia, 96-well plate, 5×10^5 CFU/mL, 37° C., 10 h
[11] = 96-well plate, 5×10^5 CFU/mL, 37° C., 10 h

PRT1268 (CAVNNGGCDRTCKDTSTGVHCSCPVGFTLQLDGKTC; listed as Homo sapiens)
12.5 µg/mL: MIC against P. mirabilis (Proteus mirabilis; [1]) | MIC against E. coli BL21 (E. coli BL21; [4]) | MIC against C. diversus (Citrobacter diversus; [6]) | MIC against K. pneumonia (Klebsiella pneumonia; [10])
50 µg/mL: MIC (E. coli DH5α) | MIC against S. marcescens (Serratia marcescens; [3]) | MIC against P. aeruginosa (Pseudomonas aeruginosa; [5]) | MIC against A. hydrophila (Aeromonas hydrophila; [8]) | MIC against M. catarrhalis (Moraxella catarrhalis; [9])
25 µg/mL: MIC against E. cloacae (Enterobacter cloacae; [2]) | MIC against P. vulgaris (Proteus vulgaris; [7])

PRT1017 (NPDNCVSHQCQNGGTCQDGLDTYTCLCPETWTGWDCS; listed as Homo sapiens)
12.5 µg/mL: MIC (Enterobacter cloacae; E. cloacae, 10 h cultivation at 37° C.) | MIC (E. coli BL21; E. coli BL21, 10 h cultivation at 37° C.) | MIC (Pseudomonas aeruginosa; P. aeruginosa, 10 h cultivation at 37° C.) | MIC (Citrobacter diversus; C. diversus, 10 h cultivation at 37° C.) | MIC (Proteus vulgaris; P. vulgaris, 10 h cultivation at 37° C.) | MIC (Aeromonas hydrophila; A. hydrophila, 10 h cultivation at 37° C.) | MIC (Moraxella catarrhalis; M. catarrhalis, 10 h cultivation at 37° C.) | MIC (Klebsiella pneumonia; K. pneumonia, 10 h cultivation at 37° C.)
50 µg/mL: MIC (Proteus mirabilis; P. mirabilis, 10 h cultivation at 37° C.) | MIC (E. coli DH5α) | MIC (Serratia marcescens; S. marcescens, 10 h cultivation at 37° C.)

PRT468 (LCTPRCMNGGLCVTPGFCICPPGFYGVNCD; listed as Homo sapiens)
50 µg/mL: MIC against P. mirabilis (Proteus mirabilis; [11]) | MIC against S. marcescens (Serratia marcescens; [11]) | MIC against C. diversus (Citrobacter diversus; [11]) | MIC against K. pneumonia (Klebsiella pneumonia; [11])
12.5 µg/mL: MIC against E. coli BL21 (E. coli BL21; [11]) | MIC against P. vulgaris (Proteus vulgaris; [11]) | MIC against A. hydrophila (Aeromonas hydrophila; [11]) | MIC against M. catarrhalis (Moraxella catarrhalis; [11])
25 µg/mL: MIC against E. cloacae (Enterobacter cloacae; [11]) | MIC (E. coli DH5α) | MIC against P. aeruginosa (Pseudomonas aeruginosa; [11])

PRT34 (ACHPGFYGPDCKLRCSCNNGEMCDRFQGCLCSPGWQGLQCE; listed as Homo sapiens)
100 µg/mL: MIC (E. coli DH5α)
12.5 µg/mL: MIC (μg/mL) P. mirabilis (Proteus mirabilis; [1]) | MIC (μg/mL) E. cloacae (Enterobacter cloacae; [2]) | MIC (μg/mL) S. marcescens (Serratia marcescens; [3]) | MIC (μg/mL) M. catarrhalis (Moraxella catarrhalis; [9]) | MIC (μg/mL) K. pneumonia (Klebsiella pneumonia; [10])
25 µg/mL: MIC (μg/mL) E. coli BL21 (E. coli BL21; [4]) | MIC (μg/mL) P. aeruginosa (Pseudomonas aeruginosa; [5]) | MIC (μg/mL) C. diversus (Citrobacter diversus; [6]) | MIC (μg/mL) P. vulgaris (Proteus vulgaris; [7]) | MIC (μg/mL) A. hydrophila (Aeromonas hydrophila; [8])

PRT1216 (YPDACKRSPCQHGGSCTGLPSGGYQCTCLSQFTGRNCE; listed as Homo sapiens)
25 µg/mL: MIC against E. cloacae (Enterobacter cloacae; [2]) | MIC against P. vulgaris (Proteus vulgaris; [7]) | MIC against A. hydrophila (Aeromonas hydrophila; [8])
12.5 µg/mL: MIC against S. marcescens (Serratia marcescens; [3]) | MIC against E. coli BL21 (E. coli BL21; [4]) | MIC against M. catarrhalis (Moraxella catarrhalis; [9]) | MIC against K. pneumonia (Klebsiella pneumonia; [10])
50 µg/mL: MIC against P. mirabilis (Proteus mirabilis; [1]) | MIC (E. coli DH5α) | MIC against P. aeruginosa (Pseudomonas aeruginosa; [5]) | MIC against C. diversus (Citrobacter diversus; [6])

PRT448 (SFRCQCEPGFQLGPNNRSCVDVNE; listed as Homo sapiens)
50 µg/mL: MIC against E. coli BL21 (E. coli BL21; [11]) | MIC against P. vulgaris (Proteus vulgaris; [11]) | MIC against A. hydrophila (Aeromonas hydrophila; [11]) | MIC against K. pneumonia (Klebsiella pneumonia; [11])
25 µg/mL: MIC against P. mirabilis (Proteus mirabilis; [11]) | MIC against C. diversus (Citrobacter diversus; [11])
100 µg/mL: MIC against P. aeruginosa (Pseudomonas aeruginosa; [11])
12.5 µg/mL: MIC against E. cloacae (Enterobacter cloacae; [11]) | MIC (E. coli DH5α) | MIC against S. marcescens (Serratia marcescens; [11]) | MIC against M. catarrhalis (Moraxella catarrhalis; [11])

PRT501 (CGCNPVGSASDEPCTGPCVCKENVEGKACDRCKPGFYNLKEKNPRGCSE; listed as Homo sapiens)
25 µg/mL: MIC against E. coli BL21 (E. coli BL21; [11]) | MIC against P. vulgaris (Proteus vulgaris; [11]) | MIC against A. hydrophila (Aeromonas hydrophila; [11]) | MIC against M. catarrhalis (Moraxella catarrhalis; [11]) | MIC against K. pneumonia (Klebsiella pneumonia; [11])
50 µg/mL: MIC against P. aeruginosa (Pseudomonas aeruginosa; [11])
12.5 µg/mL: MIC against P. mirabilis (Proteus mirabilis; [11]) | MIC against E. cloacae (Enterobacter cloacae; [11]) | MIC (E. coli DH5α) | MIC against S. marcescens (Serratia marcescens; [11]) | MIC against C. diversus (Citrobacter diversus; [11])

PRT240 (NINECEVEPCKNGGICTDLVANYSCECPGEFMGRNCQ; listed as Homo sapiens)
100 µg/mL: MIC (μg/mL) P. mirabilis (Proteus mirabilis; P. mirabilis, 10 h cultivation at 37° C., 5×10^5 CFU/mL) | MIC (μg/mL) P. vulgaris (Proteus vulgaris; P. vulgaris, 10 h cultivation at 37° C., 5×10^5 CFU/mL)
12.5 µg/mL: MIC (μg/mL) S. marcescens (Serratia marcescens; S. marcescens, 10 h cultivation at 37° C., 5×10^5 CFU/mL) | MIC (μg/mL) E. coli BL21 (E. coli BL21; E. coli BL21, 10 h cultivation at 37° C., 5×10^5 CFU/mL) | MIC (μg/mL) A. hydrophila (Aeromonas hydrophila; A. hydrophila, 10 h cultivation at 37° C., 5×10^5 CFU/mL) | MIC (μg/mL) M. catarrhalis (Moraxella catarrhalis; M. catarrhalis, 10 h cultivation at 37° C., 5×10^5 CFU/mL) | MIC (μg/mL) K. pneumonia (Klebsiella pneumonia; K. pneumonia, 10 h cultivation at 37° C., 5×10^5 CFU/mL)
25 µg/mL: MIC (μg/mL) E. cloacae (Enterobacter cloacae; E. cloacae, 10 h cultivation at 37° C., 5×10^5 CFU/mL) | MIC (E. coli DH5α) | MIC (μg/mL) P. aeruginosa (Pseudomonas aeruginosa; P. aeruginosa, 10 h cultivation at 37° C., 5×10^5 CFU/mL) | MIC (μg/mL) C. diversus (Citrobacter diversus; C. diversus, 10 h cultivation at 37° C., 5×10^5 CFU/mL)

PRT709 (SCQLCDGYCYNGGTCQLDPETNVPVCLCSTNWSGTQCE; listed as Homo sapiens)
50 µg/mL: MIC (E. coli DH5α) | MIC S. marcescens (Serratia marcescens; [11]) | MIC P. aeruginosa (Pseudomonas aeruginosa; [11]) | MIC A. hydrophila (Aeromonas hydrophila; [11]) | MIC M. catarrhalis (Moraxella catarrhalis; [11])
25 µg/mL: MIC P. mirabilis (Proteus mirabilis; [11]) | MIC K. pneumonia (Klebsiella pneumonia; [11])
12.5 µg/mL: MIC E. cloacae (Enterobacter cloacae; [11]) | MIC E. coli BL21 (E. coli BL21; [11]) | MIC C. diversus (Citrobacter diversus; [11]) | MIC P. vulgaris (Proteus vulgaris; [11])

PRT1373 (STRSCPGGCRGRGQCLDGRCVCEDGYSGEDC; listed as Homo sapiens)
25 µg/mL: MIC against P. mirabilis (Proteus mirabilis; Proteus mirabilis, 5×10^5 CFU/mL, 10 h cultivation at 37° C.) | MIC (E. coli DH5α)
50 µg/mL: MIC against C. diversus (Citrobacter diversus; Citrobacter diversus, 5×10^5 CFU/mL, 10 h cultivation at 37° C.) | MIC against P. vulgaris (Proteus vulgaris; Proteus vulgaris, 5×10^5 CFU/mL, 10 h cultivation at 37° C.)
12.5 µg/mL: MIC against E. cloacae (Enterobacter cloacae; Enterobacter cloacae, 5×10^5 CFU/mL, 10 h cultivation at 37° C.) | MIC against S. marcescens (Serratia marcescens; Serratia marcescens, 5×10^5 CFU/mL, 10 h cultivation at 37° C.) | MIC against E. coli BL21 (E. coli BL21; E. coli BL21, 5×10^5 CFU/mL, 10 h cultivation at 37° C.) | MIC against P. aeruginosa (Pseudomonas aeruginosa; Pseudomonas aeruginosa, 5×10^5 CFU/mL, 10 h cultivation at 37° C.) | MIC against A. hydrophila (Aeromonas hydrophila; Aeromonas hydrophila, 5×10^5 CFU/mL, 10 h cultivation at 37° C.) | MIC against M. catarrhalis (Moraxella catarrhalis; Moraxella catarrhalis, 5×10^5 CFU/mL, 10 h cultivation at 37° C.) | MIC against K. pneumonia (Klebsiella pneumonia; Klebsiella pneumonia, 5×10^5 CFU/mL, 10 h cultivation at 37° C.)
